According to patent publication EP4477653A1 (Perha Pharmaceuticals, priority 2023, dated 2024):

The compounds below were run against T1, human recombinant A3AR (expressed in HEK-293 cells) (Homo sapiens, UniProt P0DMS8) (assay: Adenosine receptors antagonism assay (Eurofins), [125I]-AB-MECA radioligand competition). Settings: [125I]-AB-MECA 0.15 nM, r.t., 120 min; IC50 from dose-response curves; read-out: Potency Class A3AR.
T1 construct: host or cells: HEK-293 cells
T1 sequence (P0DMS8 1-318): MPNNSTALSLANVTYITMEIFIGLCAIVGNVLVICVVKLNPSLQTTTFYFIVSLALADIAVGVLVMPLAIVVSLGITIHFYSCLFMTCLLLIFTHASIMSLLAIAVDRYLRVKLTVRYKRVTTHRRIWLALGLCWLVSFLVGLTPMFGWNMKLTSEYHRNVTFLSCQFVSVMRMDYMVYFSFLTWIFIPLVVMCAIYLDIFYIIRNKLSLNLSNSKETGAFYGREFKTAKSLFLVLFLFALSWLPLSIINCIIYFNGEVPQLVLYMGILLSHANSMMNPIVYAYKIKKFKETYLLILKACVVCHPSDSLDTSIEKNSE
Type: binding
Description: Assays were carried out at r.t. for 120 min. Compounds were initially tested at three concentrations (0.01, 0.1, 1 µM). […] IC50 values, which is the concentration causing a half-maximal inhibition of control specific binding, and Hill coefficients (nH) were determined by non-linear regression analysis of the competition curves generated with mean replicate values using Hill equation curve fitting. The inhibition constants (Ki) were calculated using the Cheng Prusoff equation.

SMILES | IC50 [µM]
CC(C)c1nnc2c(NCc3ccc(-c4ccncc4)cc3)cc(N[C@H](CO)[C@@H](C)O)nn12 [compound 108, (2R,3R)-2-[[3-isopropyl-8-[[4-(4-pyridyl)phenyl]methylamino]-[1,2,4]triazolo[4,3-b]pyridazin-6-yl]amino]butane-1,3-diol] | 0.1 to 1
COCCCNc1cc(NCCCOC)c2nnc(-c3ccccc3)n2n1 [compound 109, N6,N8-bis(3-methoxypropyl)-3-phenyl-[1,2,4]triazolo[4,3-b]pyridazine-6,8-diamine] | 0.1 to 1
COCCCNc1cc(NCCCOC)c2nnc(C3CC3)n2n1 [compound 110, 3-cyclopropyl-N6,N8-bis(3-methoxypropyl)-[1,2,4]triazolo[4,3-b]pyridazine-6,8-diamine] | 0.01 to 0.1
COCCCNc1cc(NCCCOC)c2nnc(C(F)(F)F)n2n1 [compound 111, N6,N8-bis(3-methoxypropyl)-3-(trifluoromethyl)-[1,2,4]triazolo[4,3-b]pyridazine-6,8-diamine] | 0.01 to 0.1
COCCNc1cc(NCCOC)c2nnc(C(C)C)n2n1 [compound 112, 3-isopropyl-N6,N8-bis(2-methoxyethyl)-[1,2,4]triazolo[4,3-b]pyridazine-6,8-diamine] | 0.1 to 1
CC[C@H](CO)Nc1cc(N[C@H](CC)CO)c2nnc(C(C)C)n2n1 [compound 113, (2R)-2-[[6-[[(1R)-1-(hydroxymethyl)propyl]amino]-3-isopropyl-[1,2,4]triazolo[4,3-b]pyridazin-8-yl]amino]butan-1-ol] | 0.1 to 1
CCC(CC)Nc1cc(NC(CC)CC)c2nnc(C(C)C)n2n1 [compound 114, N6,N8-bis(1-ethylpropyl)-3-isopropyl-[1,2,4]triazolo[4,3-b]pyridazine-6,8-diamine] | 0.001 to 0.01
CC[C@H](CO)Nc1nn2c(C(C)C)nnc2c(NCc2ccccc2)c1C [compound 115, (2R)-2-[[8-(benzylamino)-3-isopropyl-7-methyl-[1,2,4]triazolo[4,3-b]pyridazin-6-yl]amino]butan-1-ol] | 0.1 to 1
CNc1cc(NCc2ccc(Br)cc2)c2nnc(C(C)C)n2n1 [compound 116, N8-[(4-bromophenyl)methyl]-3-isopropyl-N6-methyl-[1,2,4]triazolo[4,3-b]pyridazine-6,8-diamine] | 0.1 to 1
CCC(CC)CNc1cc(Nc2cccnn2)c2nnc(C(C)C)n2n1 [compound 147, N6-(2-ethylbutyl)-3-isopropyl-N8-(pyridazin-3-yl)-[1,2,4]triazolo[4,3-b]pyridazine-6,8-diamine] | < 0.001
CCC(CC)Nc1cc(Nc2cccnn2)c2nnc(C(C)C)n2n1 [compound 148, 3-isopropyl-N6-(pentan-3-yl)-N8-(pyridazin-3-yl)-[1,2,4]triazolo[4,3-b]pyridazine-6,8-diamine] | < 0.001
CCC(CC)Nc1cc(Nc2ccnnc2)c2nnc(C(C)C)n2n1 [compound 149, 3-isopropyl-N6-(pentan-3-yl)-N8-(pyridazin-4-yl)-[1,2,4]triazolo[4,3-b]pyridazine-6,8-diamine] | 0.001 to 0.01
CCC(CC)Nc1cc(Nc2ccncn2)c2nnc(C(C)C)n2n1 [compound 150, 3-isopropyl-N6-(pentan-3-yl)-N8-(pyrimidin-4-yl)-[1,2,4]triazolo[4,3-b]pyridazine-6,8-diamine] | < 0.001
CCC(CC)Nc1cc(Nc2cncnc2)c2nnc(C(C)C)n2n1 [compound 151, 3-isopropyl-N6-(pentan-3-yl)-N8-(pyrimidin-5-yl)-[1,2,4]triazolo[4,3-b]pyridazine-6,8-diamine] | < 0.001
CCC(CC)Nc1cc(Nc2ncccn2)c2nnc(C(C)C)n2n1 [compound 152, 3-isopropyl-N6-(pentan-3-yl)-N8-(pyrimidin-2-yl)-[1,2,4]triazolo[4,3-b]pyridazine-6,8-diamine] | 0.01 to 0.1
CCC(CC)Nc1cc(Nc2cnccn2)c2nnc(C(C)C)n2n1 [compound 153, 3-isopropyl-N6-(pentan-3-yl)-N8-(pyrazin-2-yl)-[1,2,4]triazolo[4,3-b]pyridazine-6,8-diamine] | < 0.001
CCC(CC)Nc1cc(Nc2cccc(OC)n2)c2nnc(C(C)C)n2n1 [compound 154, 3-isopropyl-N8-(6-methoxypyridin-2-yl)-N6-(pentan-3-yl)-[1,2,4]triazolo[4,3-b]pyridazine-6,8-diamine] | < 0.001
CCC(CC)Nc1cc(Nc2ccc(OC)cn2)c2nnc(C(C)C)n2n1 [compound 155, 3-isopropyl-N8-(5-methoxypyridin-2-yl)-N6-(pentan-3-yl)-[1,2,4]triazolo[4,3-b]pyridazine-6,8-diamine] | < 0.001
CCC(CC)Nc1cc(Nc2cc(OC)ccn2)c2nnc(C(C)C)n2n1 [compound 156, 3-isopropyl-N8-(4-methoxypyridin-2-yl)-N6-(pentan-3-yl)-[1,2,4]triazolo[4,3-b]pyridazine-6,8-diamine] | 0.001 to 0.01
CCC(CC)Nc1cc(Nc2ncccc2OC)c2nnc(C(C)C)n2n1 [compound 157, 3-isopropyl-N8-(3-methoxypyridin-2-yl)-N6-(pentan-3-yl)-[1,2,4]triazolo[4,3-b]pyridazine-6,8-diamine] | 0.01 to 0.1
CCC(CC)Nc1cc(Nc2cccnc2OC)c2nnc(C(C)C)n2n1 [compound 158, 3-isopropyl-N8-(2-methoxypyridin-3-yl)-N6-(pentan-3-yl)-[1,2,4]triazolo[4,3-b]pyridazine-6,8-diamine] | < 0.001
CCC(CC)Nc1cc(Nc2ccc(OC)nc2)c2nnc(C(C)C)n2n1 [compound 159, 3-isopropyl-N8-(6-methoxypyridin-3-yl)-N6-(pentan-3-yl)-[1,2,4]triazolo[4,3-b]pyridazine-6,8-diamine] | < 0.001
CCC(CC)Nc1cc(Nc2cncc(OC)c2)c2nnc(C(C)C)n2n1 [compound 160, 3-isopropyl-N8-(5-methoxypyridin-3-yl)-N6-(pentan-3-yl)-[1,2,4]triazolo[4,3-b]pyridazine-6,8-diamine] | 0.001 to 0.01
CCC(CC)Nc1cc(Nc2cc(OC)cnn2)c2nnc(C(C)C)n2n1 [compound 162, 3-isopropyl-N8-(5-methoxypyridazin-3-yl)-N6-(pentan-3-yl)-[1,2,4]triazolo[4,3-b]pyridazine-6,8-diamine] | < 0.001
CC[C@H](CO)Nc1cc(Nc2ccccn2)c2nnc(C(C)C)n2n1 [compound 163, (2R)-2-[[3-isopropyl-8-(2-pyridylamino)-[1,2,4]triazolo[4,3-b]pyridazin-6-yl]amino]butan-1-ol] | 0.01 to 0.1
CCC(CC)CNc1cc(NCCc2ccccn2)c2nnc(C(C)C)n2n1 [compound 164, N6-(2-ethylbutyl)-3-isopropyl-N8-[2-(2-pyridyl)ethyl]-[1,2,4]triazolo[4,3-b]pyridazine-6,8-diamine] | < 0.001
CC(C)c1nnc2c(NCCc3ccccn3)cc(NC3CCCC3)nn12 [compound 165, N6-cyclopentyl-3-isopropyl-N8-[2-(2-pyridyl)ethyl]-[1,2,4]triazolo[4,3-b]pyridazine-6,8-diamine] | 0.001 to 0.01
CCC(CC)CNc1cc(NCCc2cccnc2)c2nnc(C(C)C)n2n1 [compound 166, N6-(2-ethylbutyl)-3-isopropyl-N8-[2-(3-pyridyl)ethyl]-[1,2,4]triazolo[4,3-b]pyridazine-6,8-diamine] | 0.001 to 0.01
CCC(CC)CNc1cc(NCC(CC)CC)c2nnc(C(C)C)n2n1 [compound 167, N6,N8-bis(2-ethylbutyl)-3-isopropyl-[1,2,4]triazolo[4,3-b]pyridazine-6,8-diamine] | 0.001 to 0.01
